From publication PMC5493200 (ACS infectious diseases, 2016)
Where “and” joins values, the source holds several entries; their conditions need not be identical. Equal entries are not always repeated.

How the values were obtained:
[1] = biological target: Purified 70S M. smegmatis bacterial ribosomes (Mycolicibacterium smegmatis, UniProt A0QSG6); assay: Ribosomal translation inhibition; assay type: biochemical; conditions: inhibits luciferase activity by 50%
[2] = Maximum tolerated dose / tolerability; assay type: in vivo, mouse; conditions: mice; for Maximum tolerated dose (MTD): subcutaneous
M. tuberculosis H37Rv = assay: microbe, parasite or virus in culture; assay type: cell-based, Mycobacterium tuberculosis; conditions: for H37Rv MIC: Tables 1-4 and text; for MIC (H37Rv): Table 5
[3] = test system: M. tuberculosis H37Rv Rv1258c knockout (KO); assay: microbe, parasite or virus in culture; assay type: cell-based; conditions: Tables 1-4 and text; 7 days, 7H9 broth
Rv1258c efflux pump = conditions: for Efflux Ratio: H37Rv MIC / Rv1258c KO MIC
M. bovis BCG = assay type: cell-based; conditions: average of 2–3 replicates, standard deviation in parenthesis
Protein binding, mouse = assay type: in vitro ADME
[4] = Microsomal stability, human; assay type: in vitro ADME; conditions: human liver microsomes
M. tuberculosis Erdman = assay: Mouse model of acute tuberculosis infection; assay type: in vivo; conditions: 9 days, vs control
Protein binding, human = assay type: in vitro ADME
HepG2 cells = assay: Mammalian cytotoxicity; assay type: cell-based
[5] = Microsomal stability, mouse; assay type: in vitro ADME; conditions: mouse liver microsomes
[6] = second new trial (Figure 3C), 200 mg/kg BID, subcutaneous

Sequence of Purified 70S M. smegmatis bacterial ribosomes (A0QSG6 whole entry): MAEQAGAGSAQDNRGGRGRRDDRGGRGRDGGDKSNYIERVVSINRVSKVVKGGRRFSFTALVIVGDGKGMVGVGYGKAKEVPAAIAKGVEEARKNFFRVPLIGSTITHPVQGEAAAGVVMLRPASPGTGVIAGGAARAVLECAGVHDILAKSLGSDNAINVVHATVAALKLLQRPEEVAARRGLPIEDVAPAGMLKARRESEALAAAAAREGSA

Q: What does the source list for `Br.Br.Br.CNC1C(O)C(NC)C2OC3(O)C(NC(=O)Cc4nc5ccccc5s4)CC(C)OC3OC2C1O` [Compound 25, 3′-Dihydro-3′-deoxy-3′(R)-(benzo[d]thiazol-2-yl)acetylamino spectinomycin trihydrobroride]?
A: Ribosome IC50 [1]: 1.09 µg/mL; Maximum tolerated dose (MTD) [2]: mild toxicity noted when dosage exceeded 100 mg/kg; H37Rv MIC (M. tuberculosis H37Rv): 1.6 µg/mL; Rv1258c KO MIC [3]: 0.8 µg/mL; Efflux Ratio (Rv1258c efflux pump): 2

Q: With `Br.Br.Br.CNC1C(O)C(NC)C2OC3(O)C(OC(C)C[C@H]3NC(=O)Cc3cccc(C)n3)OC2C1O` (stereo partly drawn) [Compound 32, 3′-Dihydro-3′-deoxy-3′(R)-(6-methylpyridin-2-yl)acetylamino spectinomycin trihydrobromide] as the compound, how does the “Ribosome IC50” value [1] read?
A: 0.50 µg/mL

Q: And the “H37Rv MIC” value (M. tuberculosis H37Rv)?
A: 25 µg/mL

Q: What about the “Rv1258c KO MIC” value [3] of the same compound?
A: 6.3 µg/mL

Q: And the “Efflux Ratio” value (Rv1258c efflux pump)?
A: 4

Q: For `Br.Br.Br.CNC1C(O)C(NC)C2OC3(O)C(NC(=O)Cc4cc(C(C)C)ccn4)CC(C)OC3OC2C1O` [Compound 33, 3′-Dihydro-3′-deoxy-3′(R)-(4-isopropylpyridin-2-yl)acetylamino spectinomycin trihydrobromide], which “Ribosome IC50” value [1] is on record?
A: 0.36 µg/mL

Q: What about the “H37Rv MIC” value (M. tuberculosis H37Rv) of the same compound?
A: 6.3 µg/mL

Q: And the “Rv1258c KO MIC” value [3]?
A: 1.6 µg/mL

Q: And the “Fold change of MIC between H37Rv and Rv1258c KO (efflux)” value (Rv1258c efflux pump)?
A: 4 fold

Q: What about the “Efflux Ratio” value (Rv1258c efflux pump) of the same compound?
A: 4

Q: Which results are given for `Br.Br.Br.CNC1C(O)C(NC)C2OC3(O)C(NC(=O)Cc4cc(OC)ccn4)CC(C)OC3OC2C1O` [Compound 34, 3′-Dihydro-3′-deoxy-3′(R)-(4-methoxypyridin-2-yl)acetylamino spectinomycin trihydrobromide]?
A: Ribosome IC50 [1]: 0.39 µg/mL; H37Rv MIC (M. tuberculosis H37Rv): 12.5 µg/mL; Rv1258c KO MIC [3]: 3.1 µg/mL; Efflux Ratio (Rv1258c efflux pump): 4

Q: For `CNC1C(O)C(NC)C2OC3(O)C(NC(=O)Cc4cc(O)ccn4)CC(C)OC3OC2C1O.Cl.Cl.Cl` [Compound 35, 3′-Dihydro-3′-deoxy-3′(R)-(4-hydroxypyridin-2-yl)acetylamino spectinomycin trihydrochloride], which “Ribosome IC50” value [1] is on record?
A: 0.44 µg/mL

Q: What about the “H37Rv MIC” value (M. tuberculosis H37Rv) of the same compound?
A: 25 µg/mL

Q: And the “Rv1258c KO MIC” value [3]?
A: 12.5 µg/mL

Q: What about the “Efflux Ratio” value (Rv1258c efflux pump) of the same compound?
A: 2

Q: Which “Ribosome IC50” value [1] does the source give for `Br.Br.Br.CN[C@@H]1[C@H](O)[C@H](NC)[C@H]2O[C@]3(O)[C@H](O[C@@H]2[C@H]1O)O[C@H](C)C[C@H]3NC(=O)Cc1ccc(OC)cn1` [Compound 38, 3′-Dihydro-3′-deoxy-3′(R)-(5-methoxypyridin-2-yl)acetylamino spectinomycin trihydrobromide] here?
A: 0.39 µg/mL

Q: And the “Post Antibiotic Effect” value (M. bovis BCG)?
A: 56 (12) h

Q: What about the Protein binding mouse (Protein binding, mouse) of the same compound?
A: 57.3%

Q: And the “Microsomal stability t1/2 human” value [4]?
A: 3.4 h

Q: And the “Reduction of bacterial load in lungs” value (M. tuberculosis Erdman; [6])?
A: 1.6 log

Q: And the “MIC (H37Rv)” value (M. tuberculosis H37Rv)?
A: 3.1 µg/mL

Q: And the “H37Rv MIC” value (M. tuberculosis H37Rv)?
A: 3.1 µg/mL

Q: What about the “Rv1258c KO MIC” value [3] of the same compound?
A: 6.3 µg/mL

Q: And the “Efflux Ratio” value (Rv1258c efflux pump)?
A: 0.5

Q: What about the Protein binding human (Protein binding, human) of the same compound?
A: 51.4%

Q: And the “Cytotoxicity (HepG2)” value (HepG2 cells)?
A: >400 µg/mL

Q: And the “Microsomal stability t1/2 mouse” value [5]?
A: 4.8 h

Q: Which “Ribosome IC50” value [1] does the source give for `CN[C@@H]1[C@H](O)[C@H](NC)[C@H]2O[C@]3(O)[C@H](O[C@@H]2[C@H]1O)O[C@H](C)C[C@H]3NC(=O)Cc1ccc(O)cn1.Cl.Cl.Cl` [Compound 39, 3′-Dihydro-3′-deoxy-3′(R)-(5-hydroxypyridin-2-yl)acetylamino spectinomycin trihydrochloride] here?
A: 0.84 µg/mL

Q: What about the “Post Antibiotic Effect” value (M. bovis BCG) of the same compound?
A: 20 (18) h

Q: What about the Protein binding mouse (Protein binding, mouse) of the same compound?
A: 30.7%

Q: And the “Maximum tolerated dose (MTD)” value [2]?
A: > 400 mg/kg

Q: What about the “Microsomal stability t1/2 human” value [4] of the same compound?
A: 7.4 h

Q: What about the “Reduction of bacterial load in lungs” value (M. tuberculosis Erdman; [6]) of the same compound?
A: 1.5 log

Q: And the “MIC (H37Rv)” value (M. tuberculosis H37Rv)?
A: 1.6 µg/mL

Q: What about the “H37Rv MIC” value (M. tuberculosis H37Rv) of the same compound?
A: 1.6 µg/mL

Q: And the “Rv1258c KO MIC” value [3]?
A: 3.1 µg/mL

Q: And the “Efflux Ratio” value (Rv1258c efflux pump)?
A: 0.5

Q: And the Protein binding human (Protein binding, human)?
A: 35.1%

Q: And the “Cytotoxicity (HepG2)” value (HepG2 cells)?
A: >400 µg/mL

Q: What about the “Microsomal stability t1/2 mouse” value [5] of the same compound?
A: 13.4 h

Q: With `CN[C@@H]1[C@H](O)[C@H](NC)[C@H]2O[C@]3(O)[C@H](O[C@@H]2[C@H]1O)O[C@H](C)C[C@H]3NC(=O)Cc1ccc(OC(F)(F)F)cn1.Cl.Cl.Cl` [Compound 41, 3′-Dihydro-3′-deoxy-3′(R)-(5-(trifluoromethoxy)pyridin-2-yl)acetylamino spectinomycin trihydrochloride] as the compound, how does the “Ribosome IC50” value [1] read?
A: 0.96 µg/mL

Q: And the “Post Antibiotic Effect” value (M. bovis BCG)?
A: 61 (17) h

Q: What about the Protein binding mouse (Protein binding, mouse) of the same compound?
A: 58.4%

Q: And the Well tolerated dosing ([2]; efficacy trial dosing (Table S3))?
A: 100 mg/kg

Q: What about the “Microsomal stability t1/2 human” value [4] of the same compound?
A: 22.4 h

Q: And the “Reduction of bacterial load in lungs” value (M. tuberculosis Erdman; second new trial (Figure 3C), 100 mg/kg)?
A: 1.1 log

Q: What about the “MIC (H37Rv)” value (M. tuberculosis H37Rv) of the same compound?
A: 3.1 µg/mL

Q: And the “H37Rv MIC” value (M. tuberculosis H37Rv)?
A: 3.1 µg/mL

Q: What about the “Rv1258c KO MIC” value [3] of the same compound?
A: 0.8 µg/mL

Q: What about the “Efflux Ratio” value (Rv1258c efflux pump) of the same compound?
A: 4

Q: And the Protein binding human (Protein binding, human)?
A: 51.4%

Q: And the “Cytotoxicity (HepG2)” value (HepG2 cells)?
A: >400 µg/mL

Q: What about the “Microsomal stability t1/2 mouse” value [5] of the same compound?
A: 27.0 h

Q: Which results are given for `Br.Br.Br.CNC1C(O)C(NC)C2OC3(O)C(NC(=O)Cc4ccc(Br)cn4)CC(C)OC3OC2C1O` [Compound 43, 3′-Dihydro-3′-deoxy-3′(R)-(5-bromopyridin-2-yl)acetylamino spectinomycin trihydrobromide]?
A: Ribosome IC50 [1]: 0.42 µg/mL; H37Rv MIC (M. tuberculosis H37Rv): 3.1 µg/mL; Rv1258c KO MIC [3]: 1.6 µg/mL; Efflux Ratio (Rv1258c efflux pump): 2

Q: What does the source list for `Br.Br.Br.CNC1C(O)C(NC)C2OC3(O)C(OC(C)C[C@H]3NC(=O)Cc3nccc(Cl)c3C(C)C)OC2C1O` (stereo partly drawn) [Compound 45, 3′-Dihydro-3′-deoxy-3′(R)-(4-chloro-3-isopropylpyridin-2-yl)acetylamino spectinomycin trihydrobromide]?
A: Ribosome IC50 [1]: 2.3 µg/mL and 2.31 µg/mL; H37Rv MIC (M. tuberculosis H37Rv): 50 µg/mL; Rv1258c KO MIC [3]: 1.6 µg/mL; Fold change of MIC between H37Rv and Rv1258c KO (efflux) (Rv1258c efflux pump): 32 fold; Efflux Ratio (Rv1258c efflux pump): 32

Q: For `Br.Br.Br.CN[C@@H]1[C@H](O)[C@H](NC)[C@H]2O[C@]3(O)[C@H](O[C@@H]2[C@H]1O)O[C@H](C)C[C@H]3NC(=O)Cc1nccc(Cl)c1C` [Compound 46, 3′-Dihydro-3′-deoxy-3′(R)-(4-chloro-3-methylpyridin-2-yl)acetylamino spectinomycin trihydrobromide], which “Ribosome IC50” value [1] is on record?
A: 0.59 µg/mL

Q: And the Protein binding mouse (Protein binding, mouse)?
A: 36.4%

Q: And the “Microsomal stability t1/2 human” value [4]?
A: >50 h

Q: What about the “Reduction of bacterial load in lungs” value (M. tuberculosis Erdman; first new trial (Figure 3B), 200 mg/kg BID, subcutaneous) of the same compound?
A: least reduction in bacterial loads

Q: And the “MIC (H37Rv)” value (M. tuberculosis H37Rv)?
A: 3.1 µg/mL

Q: What about the “H37Rv MIC” value (M. tuberculosis H37Rv) of the same compound?
A: 3.1 µg/mL

Q: And the “Rv1258c KO MIC” value [3]?
A: 1.6 µg/mL

Q: And the “Efflux Ratio” value (Rv1258c efflux pump)?
A: 2

Q: What about the Protein binding human (Protein binding, human) of the same compound?
A: 46.6%

Q: And the “Cytotoxicity (HepG2)” value (HepG2 cells)?
A: >400 µg/mL

Q: And the “Microsomal stability t1/2 mouse” value [5]?
A: >50 h

Q: For `Br.Br.Br.CN[C@@H]1[C@H](O)[C@H](NC)[C@H]2O[C@]3(O)[C@H](O[C@@H]2[C@H]1O)O[C@H](C)C[C@H]3NC(=O)Cc1cc(Cl)c(F)cn1` [Compound 49, 3′-Dihydro-3′-deoxy-3′(R)-(4-chloro-5-fluoropyridin-2-yl)acetylamino spectinomycin trihydrobromide], which “Ribosome IC50” value [1] is on record?
A: 0.22 µg/mL

Q: What about the “Post Antibiotic Effect” value (M. bovis BCG) of the same compound?
A: 116 (19) h

Q: What about the Protein binding mouse (Protein binding, mouse) of the same compound?
A: 39.3%

Q: And the “Microsomal stability t1/2 human” value [4]?
A: >50 h

Q: And the “MIC (H37Rv)” value (M. tuberculosis H37Rv)?
A: 0.8 µg/mL

Q: And the “H37Rv MIC” value (M. tuberculosis H37Rv)?
A: 0.8 µg/mL

Q: What about the “Rv1258c KO MIC” value [3] of the same compound?
A: 0.8 µg/mL

Q: What about the Protein binding human (Protein binding, human) of the same compound?
A: 56.3%

Q: And the “Cytotoxicity (HepG2)” value (HepG2 cells)?
A: >400 µg/mL

Q: What about the “Microsomal stability t1/2 mouse” value [5] of the same compound?
A: >50 h

Q: Which “Ribosome IC50” value [1] does the source give for `CNC1C(O)C(NC)C2OC3(O)C(OC(C)C[C@H]3NC(=O)Cc3cc(OC)c(F)cn3)OC2C1O.Cl.Cl.Cl` (stereo partly drawn) [Compound 50, 3′-Dihydro-3′-deoxy-3′(R)-(5-fluoro-4-methoxypyridin-2-yl)acetylamino spectinomycin trihydrochloride] here?
A: 0.92 µg/mL

Q: What about the “H37Rv MIC” value (M. tuberculosis H37Rv) of the same compound?
A: 6.3 µg/mL

Q: And the “Rv1258c KO MIC” value [3]?
A: 3.1 µg/mL

Q: What about the “Efflux Ratio” value (Rv1258c efflux pump) of the same compound?
A: 2
